Data: ChEMBL document CHEMBL5260809, “Isoxazole ring as a useful scaffold in a search for new therapeutic agents” (Eur J Med Chem, 2017)
pEC50, pIC50: −log10 of the molar value. ≈ marks a conversion by molar mass, not a printed value.

Experiments:
[1] = Selectivity index, ratio of CC50 for human HeLa cells to IC50 for Coxsackievirus B3 isolate 97-927; type: toxicity; conditions: read-out: Ratio CC50/IC50
[2] = Selectivity index, ratio of CC50 for human HeLa cells to IC50 for Human rhinovirus 2; type: toxicity; conditions: read-out: Ratio CC50/IC50
[3] = Toxicity in rat; conditions: in vivo
[4] = species: Rattus norvegicus; assay: Anticonvulsant activity in rat maximal electroshock seizure model; type: functional
[5] = test system: Human immunodeficiency virus 1; assay: Antiviral activity against HIV-1 assessed as reduction in multinucleated cells production at 25 ug/ml; type: functional; parameters: scale not given: the % may be the effect or the level left; conditions: dose 25 µg/ml
[6] = test system: Staphylococcus aureus; assay: Antibacterial activity against Staphylococcus aureus assessed as zone of inhibition at 50 ug/ml by agar disc diffusion method; type: functional; conditions: read-out: IZ
[7] = test system: Escherichia coli; assay: Antibacterial activity against Escherichia coli assessed as zone of inhibition at 50 ug/ml by agar disc diffusion method; type: functional; conditions: read-out: IZ
[8] = test system: MDA-MB-231; assay: Antimigratory activity against human MDA-MB-231 cells; type: functional, cell-based
[9] = target: T1, Muscarinic acetylcholine receptor M2 (Rattus norvegicus, UniProt P10980); assay: Agonist activity at rat M2 muscarinic receptor
T1 sequence (P10980 whole entry): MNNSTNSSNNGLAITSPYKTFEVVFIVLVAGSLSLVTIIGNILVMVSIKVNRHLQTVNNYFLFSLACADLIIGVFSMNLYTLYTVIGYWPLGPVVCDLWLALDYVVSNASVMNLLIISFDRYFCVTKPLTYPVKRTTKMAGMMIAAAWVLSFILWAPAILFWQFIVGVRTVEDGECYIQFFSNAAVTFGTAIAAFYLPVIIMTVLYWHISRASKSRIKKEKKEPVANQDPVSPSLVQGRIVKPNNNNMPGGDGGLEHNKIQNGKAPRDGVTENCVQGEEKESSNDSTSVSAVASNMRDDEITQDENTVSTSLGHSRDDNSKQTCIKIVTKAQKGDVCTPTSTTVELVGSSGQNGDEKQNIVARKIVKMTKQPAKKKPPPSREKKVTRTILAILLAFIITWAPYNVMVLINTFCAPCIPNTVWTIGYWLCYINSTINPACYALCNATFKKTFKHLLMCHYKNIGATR

[10] = target: T2, Muscarinic acetylcholine receptor M1 (Rattus norvegicus, UniProt P08482); assay: Agonist activity at rat M1 muscarinic receptor
T2 sequence (P08482 whole entry): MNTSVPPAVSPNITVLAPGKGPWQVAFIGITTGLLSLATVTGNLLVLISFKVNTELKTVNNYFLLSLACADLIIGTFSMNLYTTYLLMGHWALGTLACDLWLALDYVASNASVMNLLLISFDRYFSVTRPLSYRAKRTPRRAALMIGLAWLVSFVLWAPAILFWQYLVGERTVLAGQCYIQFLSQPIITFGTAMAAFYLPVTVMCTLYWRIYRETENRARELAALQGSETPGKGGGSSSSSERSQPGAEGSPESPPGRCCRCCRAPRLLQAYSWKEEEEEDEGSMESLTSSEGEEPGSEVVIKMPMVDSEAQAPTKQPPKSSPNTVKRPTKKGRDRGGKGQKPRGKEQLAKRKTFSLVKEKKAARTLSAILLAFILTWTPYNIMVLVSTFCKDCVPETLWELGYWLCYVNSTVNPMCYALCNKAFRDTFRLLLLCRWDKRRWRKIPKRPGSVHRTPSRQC

[11] = Induction of sodium-22 influx in human TE-671 cells; type: functional, cell-based
[12] = species: Rattus norvegicus; assay: Protective index, ratio of TD50 for rat to ED50 for anticonvulsant activity in rat; type: functional
[13] = species: Mus musculus; assay: Antithrombotic activity in Swiss mouse model of collagen and adrenaline-induced thrombosis assessed as increase in bleeding time; type: functional
[14] = test system: Coxsackievirus B3; assay: Antiviral activity against Coxsackievirus B3; type: functional, organism-based; conditions: Enterovirus B

**Q.** Which selectivity ratio [1] does the source give for `Cc1cc(CCCOc2ccc(-c3ccc(F)cc3)cc2)on1` here?
**A.** The selectivity ratio was over 37.3.

**Q.** What about the selectivity ratio [2] of the same molecule?
**A.** Its selectivity ratio is over 5560.

**Q.** With `Cc1cc(C(=O)Nc2c(C)cccc2C)no1` as the molecule, how does the TD50 [3] read?
**A.** Its TD50 is over 500 mg/kg.

**Q.** What about the ED50 [4] of the same molecule?
**A.** The ED50 was 5.5 mg/kg.

**Q.** Which results are given for `Cc1cc(CCCOc2ccc(-c3ccccc3C)cc2)on1`?
**A.** selectivity ratio [1]: 2.6; selectivity ratio [2]: 57.5

**Q.** For `O=C(CBr)c1cc(-c2ccccc2)no1`, which Activity [5] is on record?
**A.** The Activity was 95%.

**Q.** For `CCOC(=O)C1C(c2c(OCc3ccccc3)c(Br)cc3c(Cl)c(Cl)c(=O)oc23)=NOC1c1ccc(C(F)(F)F)cc1` (stereo not given), which zone of inhibition at 50 µg/mL [6] is on record?
**A.** The zone of inhibition at 50 µg/mL was 24 mm.

**Q.** What about the zone of inhibition at 50 µg/mL [7] of the same molecule?
**A.** Its zone of inhibition at 50 µg/mL is 20 mm.

**Q.** With `CCc1cc(-c2oncc2-c2ccc(OC)cc2)c(O)cc1OC` as the molecule, how does the pIC50 [8] read?
**A.** The pIC50 was 6.82.

**Q.** With `C#CCOc1noc2c1CNCCC2C` (stereo not given) as the molecule, how does the pEC50 [9] read?
**A.** The pEC50 was under 4.29.

**Q.** And the pEC50 [10]?
**A.** Its pEC50 is 5.89.

**Q.** With `Clc1ccc([C@H]2CC3CCC2N3)cn1` (stereo not given in full) as the molecule, how does the pEC50 [11] read?
**A.** Its pEC50 is 6.28.

**Q.** Which Ratio [12] does the source give for `Cc1cc(NC2=CC(=O)C(C(=O)OC(C)(C)C)C(C)C2)no1` (stereo not given) here?
**A.** The Ratio was over 49.6.

**Q.** For `N#Cc1ccc(CN(Cc2cc(-c3ccccc3Cl)on2)C(CCCNC(=N)N)C(N)=O)cc1` (stereo not given), which Activity [13] is on record?
**A.** Its Activity is 87.5%.

**Q.** With `CCc1cc(-c2oncc2-c2ccc(Br)cc2)c(O)cc1OC` as the molecule, how does the pIC50 [8] read?
**A.** The pIC50 was 7.30.

**Q.** Which TD50 [3] does the source give for `Cc1cc(NC(=O)c2c(C)cccc2C)on1` here?
**A.** Its TD50 is over 500 mg/kg.

**Q.** What about the ED50 [4] of the same molecule?
**A.** Its ED50 is 8.9 mg/kg.

**Q.** With `NC(=O)c1ncn([C@@H]2O[C@H](CO)[C@@H](O)[C@H]2O)n1` [RIBAVIRIN] as the molecule, how does the EC50 [14] read?
**A.** Its EC50 is 92.5 mg/L (≈ 379 µM).

**Q.** Which zone of inhibition at 50 µg/mL [6] does the source give for `O=C(N[C@H](CO)[C@H](O)c1ccc([N+](=O)[O-])cc1)C(Cl)Cl` [CHLORAMPHENICOL] here?
**A.** Its zone of inhibition at 50 µg/mL is 23 mm.

**Q.** And the zone of inhibition at 50 µg/mL [7]?
**A.** Its zone of inhibition at 50 µg/mL is 21 mm.

**Q.** What does the source list for `Cc1cc(CCCOc2ccc(-c3cccc(F)c3)cc2)on1`?
**A.** selectivity ratio [1]: 2.9; selectivity ratio [2]: 230

**Q.** With `Cc1cc(C2CC3CCC2N3)on1` (stereo not given) as the molecule, how does the pEC50 [11] read?
**A.** The pEC50 was 5.59.

**Q.** With `Cc1cn(Cc2cc([C@@H](Cc3ccccc3)NC(=O)OC(C)(C)C)no2)c(=O)n(C(=O)c2ccccc2)c1=O` as the molecule, how does the EC50 [14] read?
**A.** Its EC50 is 10.6 mg/L (≈ 20 µM).
